# Data: PubChem BioAssay (NCI)
#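 Interpolation was linear, between the two tested concentrations surrounding the appropriate level; five concentrations were tested over 48 hours in 96-well plates. TGI denotes the concentration required for complete inhibition of growth.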
# Legend:
# Assay in all cases: DTP human tumour cell line panel, 48 h
# 786-0 renal = test system: 786-0 renal
# A498 renal = test system: A498 renal
# A549 NSCLC = test system: A549 NSCLC
# ACHN renal = test system: ACHN renal
# BT-549 breast = test system: BT-549 breast
# CAKI-1 renal = test system: CAKI-1 renal
# CCRF-CEM leukemia = test system: CCRF-CEM leukemia
# COLO 205 colon = test system: COLO 205 colon
# DLD-1 colon = test system: DLD-1 colon
# DMS 114 small cell lung = test system: DMS 114 small cell lung
# DMS 273 small cell lung = test system: DMS 273 small cell lung
# DU-145 prostate = test system: DU-145 prostate
# EKVX NSCLC = test system: EKVX NSCLC
# HCC-2998 colon = test system: HCC-2998 colon
# HCT-116 colon = test system: HCT-116 colon
# HCT-15 colon = test system: HCT-15 colon
# HL-60(TB) leukemia = test system: HL-60(TB) leukemia
# HOP-18 NSCLC = test system: HOP-18 NSCLC
# HOP-62 NSCLC = test system: HOP-62 NSCLC
# HOP-92 NSCLC = test system: HOP-92 NSCLC
# HT29 colon = test system: HT29 colon
# IGROV1 ovarian = test system: IGROV1 ovarian
# K-562 leukemia = test system: K-562 leukemia
# KM12 colon = test system: KM12 colon
# KM20L2 colon = test system: KM20L2 colon
# LOX IMVI melanoma = test system: LOX IMVI melanoma
# LXFL 529 NSCLC = test system: LXFL 529 NSCLC
# M14 melanoma = test system: M14 melanoma
# M19-MEL melanoma = test system: M19-MEL melanoma
# MALME-3M melanoma = test system: MALME-3M melanoma
# MCF7 breast = test system: MCF7 breast
# MDA-MB-231 breast = test system: MDA-MB-231 breast
# MDA-MB-435 = test system: MDA-MB-435
# MOLT-4 leukemia = test system: MOLT-4 leukemia
# NCI-H226 lung = test system: NCI-H226 lung
# NCI-H23 lung = test system: NCI-H23 lung
# NCI-H460 lung = test system: NCI-H460 lung
# NCI-H522 lung = test system: NCI-H522 lung
# OVCAR-3 ovarian = test system: OVCAR-3 ovarian
# OVCAR-4 ovarian = test system: OVCAR-4 ovarian
# OVCAR-5 ovarian = test system: OVCAR-5 ovarian
# OVCAR-8 ovarian = test system: OVCAR-8 ovarian
# PC-3 prostate = test system: PC-3 prostate
# RPMI-8226 leukemia = test system: RPMI-8226 leukemia
# RXF 393 renal = test system: RXF 393 renal
# SF-268 CNS = test system: SF-268 CNS
# SF-295 CNS = test system: SF-295 CNS
# SF-539 CNS = test system: SF-539 CNS
# SK-MEL-2 melanoma = test system: SK-MEL-2 melanoma
# SK-MEL-28 melanoma = test system: SK-MEL-28 melanoma
# SK-MEL-5 melanoma = test system: SK-MEL-5 melanoma
# SK-OV-3 ovarian = test system: SK-OV-3 ovarian
# SN12C renal = test system: SN12C renal
# SNB-19 CNS = test system: SNB-19 CNS
# SNB-75 CNS = test system: SNB-75 CNS
# SR leukemia = test system: SR leukemia
# SW-620 colon = test system: SW-620 colon
# T-47D breast = test system: T-47D breast
# TK-10 renal = test system: TK-10 renal
# U251 CNS = test system: U251 CNS
# UACC-257 melanoma = test system: UACC-257 melanoma
# UACC-62 melanoma = test system: UACC-62 melanoma
# UO-31 renal = test system: UO-31 renal
# XF 498 CNS = test system: XF 498 CNS
# HS 578T breast = test system: HS 578T breast
# MDA-N = test system: MDA-N
# NCI/ADR-RES ovarian = test system: NCI/ADR-RES ovarian
# RXF-631 renal = test system: RXF-631 renal
# SNB-78 CNS = test system: SNB-78 CNS
compound,measurement,setting,value
CN(C)CC1CCC(CN(C)C)C(=O)C1=O (stereo unspecified),TGI,786-0 renal,29.7 µM
same,TGI,A498 renal,31.8 µM
same,TGI,A549 NSCLC,25.1 µM
same,TGI,ACHN renal,11.9 µM
same,TGI,BT-549 breast,20.9 µM
same,TGI,CAKI-1 renal,3.82 µM
same,TGI,CCRF-CEM leukemia,4.51 µM
same,TGI,COLO 205 colon,3.5 µM
same,TGI,DLD-1 colon,7.25 µM
same,TGI,DMS 114 small cell lung,12.9 µM
same,TGI,DMS 273 small cell lung,31.2 µM
same,TGI,DU-145 prostate,30.1 µM
same,TGI,EKVX NSCLC,47.2 µM
same,TGI,HCC-2998 colon,35.4 µM
same,TGI,HCT-116 colon,7.55 µM
same,TGI,HCT-15 colon,7.78 µM
same,TGI,HL-60(TB) leukemia,7.17 µM
same,TGI,HOP-18 NSCLC,3.07 µM
same,TGI,HOP-62 NSCLC,35.3 µM
same,TGI,HOP-92 NSCLC,3.81 µM
same,TGI,HT29 colon,16.5 µM
same,TGI,IGROV1 ovarian,33.2 µM
same,TGI,K-562 leukemia,6.15 µM
same,TGI,KM12 colon,28.1 µM
same,TGI,KM20L2 colon,30.8 µM
same,TGI,LOX IMVI melanoma,22.2 µM
same,TGI,LXFL 529 NSCLC,3.09 µM
same,TGI,M14 melanoma,12.5 µM
same,TGI,M19-MEL melanoma,33.9 µM
same,TGI,MALME-3M melanoma,3.6 µM
same,TGI,MCF7 breast,8.6 µM
same,TGI,MDA-MB-231 breast,19.5 µM
same,TGI,MDA-MB-435,31.7 µM
same,TGI,MOLT-4 leukemia,4.96 µM
same,TGI,NCI-H226 lung,10.8 µM
same,TGI,NCI-H23 lung,22.1 µM
same,TGI,NCI-H460 lung,36.4 µM
same,TGI,NCI-H522 lung,1.38 µM
same,TGI,OVCAR-3 ovarian,5.32 µM
same,TGI,OVCAR-4 ovarian,18.3 µM
same,TGI,OVCAR-5 ovarian,30.9 µM
same,TGI,OVCAR-8 ovarian,9.08 µM
same,TGI,PC-3 prostate,31.1 µM
same,TGI,RPMI-8226 leukemia,18.1 µM
same,TGI,RXF 393 renal,3.47 µM
same,TGI,SF-268 CNS,10.9 µM
same,TGI,SF-295 CNS,32.4 µM
same,TGI,SF-539 CNS,12.6 µM
same,TGI,SK-MEL-2 melanoma,34.6 µM
same,TGI,SK-MEL-28 melanoma,20.6 µM
same,TGI,SK-MEL-5 melanoma,30 µM
same,TGI,SK-OV-3 ovarian,38.7 µM
same,TGI,SN12C renal,32.7 µM
same,TGI,SNB-19 CNS,29.9 µM
same,TGI,SNB-75 CNS,30.6 µM
same,TGI,SR leukemia,5.08 µM
same,TGI,SW-620 colon,3.33 µM
same,TGI,T-47D breast,5.36 µM
same,TGI,TK-10 renal,9.96 µM
same,TGI,U251 CNS,26.7 µM
same,TGI,UACC-257 melanoma,6.44 µM
same,TGI,UACC-62 melanoma,31.3 µM
same,TGI,UO-31 renal,11 µM
same,TGI,XF 498 CNS,4.95 µM
O=C(NC(=O)c1c(Cl)nc2sccn12)Nc1ccc(Cl)cc1,TGI,786-0 renal,> 90.1 µM
same,TGI,A498 renal,> 97.6 µM
same,TGI,A549 NSCLC,> 100 µM
same,TGI,ACHN renal,> 100 µM
same,TGI,BT-549 breast,> 81.9 µM
same,TGI,CAKI-1 renal,> 100 µM
same,TGI,CCRF-CEM leukemia,> 100 µM
same,TGI,COLO 205 colon,> 100 µM
same,TGI,DLD-1 colon,> 100 µM
same,TGI,DMS 114 small cell lung,> 100 µM
same,TGI,DMS 273 small cell lung,> 100 µM
same,TGI,DU-145 prostate,> 100 µM
same,TGI,EKVX NSCLC,> 100 µM
same,TGI,HCC-2998 colon,> 93.6 µM
same,TGI,HCT-116 colon,> 100 µM
same,TGI,HCT-15 colon,> 100 µM
same,TGI,HL-60(TB) leukemia,> 100 µM
same,TGI,HOP-62 NSCLC,43.3 µM
same,TGI,HOP-92 NSCLC,66.6 µM
same,TGI,HS 578T breast,62.9 µM
same,TGI,HT29 colon,> 100 µM
same,TGI,IGROV1 ovarian,> 100 µM
same,TGI,K-562 leukemia,> 100 µM
same,TGI,KM12 colon,> 100 µM
same,TGI,KM20L2 colon,> 100 µM
same,TGI,LOX IMVI melanoma,> 100 µM
same,TGI,M14 melanoma,> 100 µM
same,TGI,M19-MEL melanoma,> 100 µM
same,TGI,MALME-3M melanoma,> 100 µM
same,TGI,MCF7 breast,> 100 µM
same,TGI,MDA-MB-231 breast,68.5 µM
same,TGI,MDA-MB-435,> 100 µM
same,TGI,MDA-N,> 100 µM
same,TGI,MOLT-4 leukemia,> 100 µM
same,TGI,NCI-H226 lung,89.7 µM
same,TGI,NCI-H23 lung,88.1 µM
same,TGI,NCI-H460 lung,> 100 µM
same,TGI,NCI-H522 lung,> 100 µM
same,TGI,NCI/ADR-RES ovarian,> 100 µM
same,TGI,OVCAR-3 ovarian,> 100 µM
same,TGI,OVCAR-4 ovarian,> 100 µM
same,TGI,OVCAR-5 ovarian,> 100 µM
same,TGI,OVCAR-8 ovarian,> 100 µM
same,TGI,PC-3 prostate,> 56.2 µM
same,TGI,RPMI-8226 leukemia,> 100 µM
same,TGI,RXF 393 renal,76.2 µM
same,TGI,RXF-631 renal,> 100 µM
same,TGI,SF-268 CNS,53.9 µM
same,TGI,SF-295 CNS,70.2 µM
same,TGI,SF-539 CNS,73.1 µM
same,TGI,SK-MEL-2 melanoma,> 100 µM
same,TGI,SK-MEL-28 melanoma,> 100 µM
same,TGI,SK-MEL-5 melanoma,> 100 µM
same,TGI,SK-OV-3 ovarian,57.5 µM
same,TGI,SN12C renal,> 100 µM
same,TGI,SNB-19 CNS,74.1 µM
same,TGI,SNB-75 CNS,47.1 µM
same,TGI,SNB-78 CNS,> 100 µM
same,TGI,SR leukemia,> 100 µM
same,TGI,SW-620 colon,> 100 µM
same,TGI,T-47D breast,> 100 µM
same,TGI,TK-10 renal,89.2 µM
same,TGI,U251 CNS,55.9 µM
same,TGI,UACC-257 melanoma,> 100 µM
same,TGI,UACC-62 melanoma,> 100 µM
same,TGI,UO-31 renal,> 84.4 µM
same,TGI,XF 498 CNS,42.3 µM
